Reference: the SangsterLogP compilation

Test: method code SF-AS, from PMID: 8047542

SMILES	logP
CCCOC(=O)C(C)c1ccc(CC(C)C)cc1 (configuration not stated)	2.88
CCCCCOC(=O)C(C)c1ccc(CC(C)C)cc1 (configuration not stated)	3.3
CCCCCCCCCCCCCCCCOC(=O)C(C)c1ccc(CC(C)C)cc1 (configuration not stated)	3.71
CC(C)COC(=O)C(C)c1ccc(CC(C)C)cc1 (configuration not stated)	2.68
CCCCCCOC(=O)C(C)c1ccc(CC(C)C)cc1 (configuration not stated)	3.55
CCCCCCCOC(=O)C(C)c1ccc(CC(C)C)cc1 (configuration not stated)	3.75
CCC(C)OC(=O)C(C)c1ccc(CC(C)C)cc1 (configuration not stated)	3.06
CCCCOC(=O)C(C)c1ccc(CC(C)C)cc1 (configuration not stated)	3.13

Results, then the compound that gave them:

logP	SMILES
2.3	CC(C)Cc1ccc(C(C)C(=O)OC(C)C)cc1 (configuration not stated)
2.97	COC(=O)C(C)c1ccc(CC(C)C)cc1 (configuration not stated)
3.02	CCOC(=O)C(C)c1ccc(CC(C)C)cc1 (configuration not stated)
2.37	CC(C)Cc1ccc(C(C)C(=O)OC(C)(C)C)cc1 (configuration not stated)
